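Interpolation was linear, between the two tested concentrations surrounding the appropriate level; five concentrations were tested over 48 hours in 96-well plates. GI50: concentration for 50% inhibition of growth.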 Active and inactive are the calls of the source. No stated cut-off is given here; in the data, active = GI50 up to about 1.1 µM and inactive = higher.
Columns and labels:
Test in all cases: inhibition of tumour cell growth, NCI panel, 48 h
786-0 = system: 786-0
A498 = system: A498
A549 = system: A549
COLO 205 = system: COLO 205
HCT-116 = system: HCT-116
HL-60 = system: HL-60
HOP-62 = system: HOP-62
Hs-578T = system: Hs-578T
K562 = system: K562
LOX IMVI = system: LOX IMVI
MDA-MB-435 = system: MDA-MB-435
MOLT-4 = system: MOLT-4
Malme-3M = system: Malme-3M
NCI-H23 = system: NCI-H23
OVCAR-8 = system: OVCAR-8
PC-3 = system: PC-3
SF-539 = system: SF-539
SK-MEL-2 = system: SK-MEL-2
SNB-19 = system: SNB-19
U-251 = system: U-251

OC(Cc1cc(CC(O)(C(F)(F)F)C(F)(F)F)nc(CC(O)(C(F)(F)F)C(F)(F)F)c1)(C(F)(F)F)C(F)(F)F
GI50 (786-0): 1.35 µM (inactive)
GI50 (A498): 1.32 µM (inactive)
GI50 (A549): 1.4 µM (inactive)
GI50 (COLO 205): 0.918 µM (active)
GI50 (HCT-116): 0.869 µM (active)
GI50 (HL-60): > 10 µM (inactive)
GI50 (HOP-62): 1.73 µM (inactive)
GI50 (Hs-578T): 1.03 µM (active)
GI50 (K562): > 10 µM (inactive)
GI50 (LOX IMVI): 0.39 µM (active)
GI50 (MDA-MB-435): 2.39 µM (inactive)
GI50 (MOLT-4): 3.85 µM (inactive)
GI50 (Malme-3M): 2.59 µM (inactive)
GI50 (NCI-H23): 0.475 µM (active)
GI50 (OVCAR-8): 1.33 µM (inactive)
GI50 (PC-3): 0.323 µM (active)
GI50 (SF-539): 1.69 µM (inactive)
GI50 (SK-MEL-2): 2.02 µM (inactive)
GI50 (SNB-19): 0.726 µM (active)
GI50 (U-251): 1 µM (active)

CCOP(=O)(OCC)/C(C#N)=C(\C)c1ccco1
GI50 (786-0): > 10 µM (inactive)
GI50 (A498): > 10 µM (inactive)
GI50 (A549): > 10 µM (inactive)
GI50 (COLO 205): > 10 µM (inactive)
GI50 (HCT-116): > 10 µM (inactive)
GI50 (HL-60): > 10 µM (inactive)
GI50 (HOP-62): > 10 µM (inactive)
GI50 (Hs-578T): > 10 µM (inactive)
GI50 (K562): > 10 µM (inactive)
GI50 (LOX IMVI): > 10 µM (inactive)
GI50 (MDA-MB-435): > 10 µM (inactive)
GI50 (MOLT-4): > 10 µM (inactive)
GI50 (Malme-3M): > 10 µM (inactive)
GI50 (NCI-H23): > 10 µM (inactive)
GI50 (OVCAR-8): > 10 µM (inactive)
GI50 (PC-3): > 10 µM (inactive)
GI50 (SF-539): > 10 µM (inactive)
GI50 (SK-MEL-2): > 10 µM (inactive)
GI50 (SNB-19): > 10 µM (inactive)
GI50 (U-251): > 10 µM (inactive)

O=C(C=P(c1ccccc1)(c1ccccc1)c1ccccc1)c1ccc(-c2cccs2)cc1
GI50 (786-0): 4.75 µM (inactive)
GI50 (A498): 0.9 µM (active)
GI50 (A549): 3.17 µM (inactive)
GI50 (COLO 205): 0.671 µM (active)
GI50 (HCT-116): 3.74 µM (inactive)
GI50 (HL-60): 2.11 µM (inactive)
GI50 (HOP-62): 6.64 µM (inactive)
GI50 (Hs-578T): 18.5 µM (inactive)
GI50 (K562): 3.59 µM (inactive)
GI50 (LOX IMVI): 4.57 µM (inactive)
GI50 (MDA-MB-435): 3.08 µM (inactive)
GI50 (MOLT-4): 2.15 µM (inactive)
GI50 (Malme-3M): 4.46 µM (inactive)
GI50 (NCI-H23): 8.91 µM (inactive)
GI50 (OVCAR-8): 4.86 µM (inactive)
GI50 (PC-3): 4.12 µM (inactive)
GI50 (SF-539): 3.97 µM (inactive)
GI50 (SK-MEL-2): 1.39 µM (inactive)
GI50 (SNB-19): 2.96 µM (inactive)
GI50 (U-251): 3.85 µM (inactive)

S=C(Nc1cccc(C2(N3CCCCC3)CCCCC2)c1)Nc1cccc(C2(N3CCCCC3)CCCCC2)c1
GI50 (786-0): 15.2 µM (inactive)
GI50 (A498): 18.9 µM (inactive)
GI50 (A549): 31.6 µM (inactive)
GI50 (COLO 205): 17.1 µM (inactive)
GI50 (HCT-116): 20.8 µM (inactive)
GI50 (HL-60): 14.9 µM (inactive)
GI50 (HOP-62): 39.2 µM (inactive)
GI50 (Hs-578T): 38.9 µM (inactive)
GI50 (K562): 11.2 µM (inactive)
GI50 (LOX IMVI): 12.7 µM (inactive)
GI50 (MDA-MB-435): 16 µM (inactive)
GI50 (MOLT-4): 13.5 µM (inactive)
GI50 (Malme-3M): 20.7 µM (inactive)
GI50 (NCI-H23): > 100 µM (inactive)
GI50 (OVCAR-8): 24.3 µM (inactive)
GI50 (PC-3): 26.9 µM (inactive)
GI50 (SF-539): 15.3 µM (inactive)
GI50 (SK-MEL-2): 18.4 µM (inactive)
GI50 (SNB-19): 36.6 µM (inactive)
GI50 (U-251): 23.4 µM (inactive)

O=C1C=CC2(C=C1)O[C@H](CCc1ccccc1)[C@@H](CCc1ccccc1)O2
GI50 (786-0): > 100 µM (inactive)
GI50 (A498): > 100 µM (inactive)
GI50 (A549): 43.7 µM (inactive)
GI50 (COLO 205): > 100 µM (inactive)
GI50 (HCT-116): 99.3 µM (inactive)
GI50 (HL-60): > 100 µM (inactive)
GI50 (HOP-62): 61.2 µM (inactive)
GI50 (Hs-578T): > 100 µM (inactive)
GI50 (K562): > 100 µM (inactive)
GI50 (LOX IMVI): 12.3 µM (inactive)
GI50 (MDA-MB-435): 27.9 µM (inactive)
GI50 (MOLT-4): 81.8 µM (inactive)
GI50 (Malme-3M): > 100 µM (inactive)
GI50 (NCI-H23): > 100 µM (inactive)
GI50 (OVCAR-8): > 100 µM (inactive)
GI50 (PC-3): > 100 µM (inactive)
GI50 (SF-539): > 100 µM (inactive)
GI50 (SK-MEL-2): > 100 µM (inactive)
GI50 (SNB-19): > 100 µM (inactive)
GI50 (U-251): 20.2 µM (inactive)

O=C(ON=c1c2ccccc2ccc2ccccc12)c1ccccc1
GI50 (786-0): 23.6 µM (inactive)
GI50 (A498): 22.1 µM (inactive)
GI50 (A549): 29.7 µM (inactive)
GI50 (COLO 205): 18.1 µM (inactive)
GI50 (HCT-116): 13.9 µM (inactive)
GI50 (HL-60): 6.28 µM (inactive)
GI50 (HOP-62): 22 µM (inactive)
GI50 (Hs-578T): 22.2 µM (inactive)
GI50 (K562): 8.81 µM (inactive)
GI50 (LOX IMVI): 18.4 µM (inactive)
GI50 (MDA-MB-435): 20.7 µM (inactive)
GI50 (MOLT-4): 7.96 µM (inactive)
GI50 (Malme-3M): 22.9 µM (inactive)
GI50 (NCI-H23): 37.5 µM (inactive)
GI50 (OVCAR-8): 27.4 µM (inactive)
GI50 (PC-3): 40.1 µM (inactive)
GI50 (SF-539): 15.5 µM (inactive)
GI50 (SK-MEL-2): 30.1 µM (inactive)
GI50 (SNB-19): 26.1 µM (inactive)
GI50 (U-251): 19.5 µM (inactive)

Cc1cnc(-n2c(C)nc3cc(Cl)ccc3c2=O)s1
GI50 (786-0): 24.5 µM (inactive)
GI50 (A498): 20.4 µM (inactive)
GI50 (A549): 32.7 µM (inactive)
GI50 (COLO 205): 19 µM (inactive)
GI50 (HCT-116): 22 µM (inactive)
GI50 (HL-60): 26 µM (inactive)
GI50 (HOP-62): > 100 µM (inactive)
GI50 (Hs-578T): 74.6 µM (inactive)
GI50 (K562): 31.1 µM (inactive)
GI50 (LOX IMVI): 41.6 µM (inactive)
GI50 (MDA-MB-435): 28.1 µM (inactive)
GI50 (MOLT-4): 30.8 µM (inactive)
GI50 (Malme-3M): 67.9 µM (inactive)
GI50 (NCI-H23): 23.3 µM (inactive)
GI50 (OVCAR-8): 45.7 µM (inactive)
GI50 (PC-3): 27.9 µM (inactive)
GI50 (SF-539): 20.7 µM (inactive)
GI50 (SK-MEL-2): 25.4 µM (inactive)
GI50 (SNB-19): 35.1 µM (inactive)
GI50 (U-251): 30.5 µM (inactive)

C[Si](C)(C)C#CCO[Si](C)(C)C
GI50 (786-0): 32.7 µM (inactive)
GI50 (A498): > 100 µM (inactive)
GI50 (A549): > 100 µM (inactive)
GI50 (COLO 205): > 54.3 µM (inactive)
GI50 (HCT-116): 65 µM (inactive)
GI50 (HL-60): 31.5 µM (inactive)
GI50 (HOP-62): > 100 µM (inactive)
GI50 (Hs-578T): > 100 µM (inactive)
GI50 (K562): 30.9 µM (inactive)
GI50 (LOX IMVI): 7.03 µM (inactive)
GI50 (MDA-MB-435): > 61.4 µM (inactive)
GI50 (MOLT-4): 22.3 µM (inactive)
GI50 (Malme-3M): > 100 µM (inactive)
GI50 (NCI-H23): 68.7 µM (inactive)
GI50 (OVCAR-8): 36.3 µM (inactive)
GI50 (PC-3): > 100 µM (inactive)
GI50 (SF-539): 21.9 µM (inactive)
GI50 (SK-MEL-2): > 54.2 µM (inactive)
GI50 (SNB-19): > 100 µM (inactive)
GI50 (U-251): > 100 µM (inactive)
